This is an account of results in patent US4087561A, “Control of nitrosamine formation in nitride cured meat with 1,2,3,4-tetrahydro-quinoline compounds” (Canada Packers Limited, priority 1975, dated 1978).

Data set [1] in a line: Volatile nitrosamine content of cook-out fat from fried nitrite-cured bacon slices streaked with test compound in soya oil. Particulars: for nitrosamine content of the fried meat: inferred from cook-out fat content; for nitrosamine content of cook-out fat from the test sample: 100 ppm on bacon slices, control sample 15 ppb. On the procedure:
A portion of the foregoing product was dissolved in winterized soya oil to provide a 4.5% concentration and the resulting solution was streaked on bacon slices, which had undergone a conventional nitrite cure and plant processing, in quantities providing levels of 1,2,3,4-tetrahydro-2,2,4-trimethyl-6-ethoxyquinoline of from 5 ppm to 100 ppm in the meat. Control slices of bacon were streaked with the oil alone. The bacon slices were fried under standardized conditions and the cook-out fat was analyzed for volatile nitrosamine content.
Since the analytical means available are not accurate below about 3 ppb (parts per billion), it will be seen that at levels of about 20 parts per million and greater of the test compound in the meat the amount of nitrosamines in the cook-out fat was reduced below the accurately determinable level.
A portion of the 1,2,3,4-tetrahydro-2,4-diethyl-2-methyl-6-methoxyquinolineprepared as above was dissolved in winterized soya oil (4.5% concentration) and the resulting solution was streaked on nitrite cured, plant processed bacon slices at a level of 100 ppm in the meat. Control slices of bacon received oil alone. The bacon slices were fried and the cook-out fat was analyzed for volatile nitrosamine content as in Example 1.

A short description of data set [2]: Volatile nitrosamines in cook-out fat of fried bacon cured with pumping pickle containing test compound. Particulars: 150 mg = 50 ppm, in Tween 60, control sample 21 ppb. From the text:
This example is representative of the use of compounds of the general formula given above in a pumping pickle.
A single pork belly (13.2 lb) was cut along the short dimension into two equal portions. Production pickle (300g), of a composition which has been generally described above, was pumped into one portion to be used as control. The other half was pumped with the same production pickle (300g) to which 1,2,3,4-tetrahydro-2,2,4-trimethyl-6-ethoxyquinoline, prepared as described in Example 1, (150 mg .ident. 50 ppm) in Tween 60 (500 mg) had been dispersed. Both portions were subsequently smoked, chilled, sliced, and packaged normally. The samples were then analyzed for nitrite content. The amount of nitrite found just before frying was 75 ppm in the control sample and 73 ppm in the test sample.
Each sample of the bacon was then fried under standard frying conditions and the cook-out fat analyzed for volatile nitrosamines.

A short description of data set [3]: Control of nitrosamine formation in nitrite cured meat (general statements).
Data set [4] can be described thus: Stability of the compound. Type of data set: physicochemical.
The conditions of data set [5]: cited from earlier work.

Take `CCOc1ccc2c(c1)C(C)CC(C)(C)N2` (stereo not shown) [1,2,3,4-tetrahydro-2,2,4-trimethyl-6-ethoxyquinoline]: the “Nitrosamines in cook-out fat, test product” value (from here on “Nitrosamines … test product”) in data set [1] (Table I sample 1, 100 ppm in meat, control product 29 ppb) is given as 0 ppb; in data set [1] (Table I sample 2, 80 ppm in meat, control product 19 ppb), 2 ppb; in data set [1] (Table I sample 3, 40 ppm in meat, control product 19 ppb) it was 3 ppb; in data set [1] (Table I sample 4, 20 ppm in meat, control product 19 ppb), 1 ppb; in data set [1] (Table I sample 5, 10 ppm in meat, control product 19 ppb), 0 ppb; in data set [1] (Table I sample 6, 10 ppm in meat, control product 18 ppb), 2 ppb. For the same compound, the “Nitrosamines … test product” value in data set [1] (Table I sample 7, 5 ppm in meat, control product 19 ppb) is on record as 5 ppb; in data set [1] (Table I sample 8, 20 ppm in meat, control product 31 ppb), 0 ppb; in data set [1] (Table I sample 9, 10 ppm in meat, control product 31 ppb), 10 ppb; in data set [1] (Table I sample 10, 5 ppm in meat, control product 31 ppb) it was 22 ppb; in data set [1] (Table I sample 11, 20 ppm in meat, control product 36 ppb), 5 ppb; in data set [1] (Table I sample 12, 10 ppm in meat, control product 36 ppb), 8 ppb. Also, the “Nitrosamines … test product” value turned out to be 6 ppb in data set [1] (Table I sample 13, 5 ppm in meat, control product 36 ppb); 1 ppb in data set [1] (Table I sample 14, 100 ppm in meat, control product 49 ppb); 3 ppb in data set [1] (Table I sample 15, 20 ppm in meat, control product 39 ppb); 15 ppb in data set [1] (Table I sample 16, 10 ppm in meat, control product 39 ppb); 2 ppb in data set [1] (Table I sample 17, 20 ppm in meat, control product 25 ppb); 4 ppb in data set [1] (Table I sample 18, 10 ppm in meat, control product 25 ppb). Further, the “nitrosamine content of the fried meat” value in data set [1] is on record as “virtually eliminated”. Besides, the “reduction in the amount of nitrosamines formed” value in data set [1] (lesser amounts (below about 20 ppm in meat)) was “significant reduction in the amount of nitrosamines formed, in some instances reducing the nitrosamines below the accurately detectable level”. The “amount of nitrosamines in the cook-out fat” value in data set [1] (levels of about 20 ppm and greater in meat, reduced below the accurately determinable level (about 3 ppb)) is “below 3 ppb”. Besides, the “volatile nitrosamines in cook-out fat of test sample” value in data set [2] is “did not show any detectable nitrosamine”. Also, the “effectiveness in the control of nitrosamines in nitrite cured meats, compared with ethoxyquin” value in data set [3] is “equally effective”. The “stability at room temperature” value in data set [4] (crystalline solid, room temperature) is “quite stable at room temperature”.

For `CCOc1ccc2c(c1)C(CC)CC(C)(CC)N2` (stereo not shown) [1,2,3,4-tetrahydro-2,4-diethyl-2-methyl-6-ethoxyquinoline], in data set [1], the “nitrosamine content of cook-out fat from the test sample” value (from here on “nitrosamine content of cook-out fat”) is “zero”.

As for `CCC1CC(C)(CC)Nc2ccc(OC)cc21` (stereo not shown) [1,2,3,4-tetrahydro-2,4-diethyl-2-methyl-6-methoxyquinoline], the “Nitrosamines … test product” value in data set [1] (Table II sample 1, 100 ppm in meat, control product 51 ppb) was 2 ppb; in data set [1] (Table II sample 2, 100 ppm in meat, control product 15 ppb), 0 ppb. In addition, the “nitrosamine content of the cook-out fat” value in data set [1] (each test sample of Table II, 100 ppm in meat, reduced below the accurately detectable level) is listed as less than 3 ppb. Also, the “nitrosamine content of the fried meat” value in data set [1] is reported as “virtually free of such substances”.

For `CCOc1ccc2c(c1)C(C)CC(C)(CC(C)C)N2` (stereo not shown) [1,2,3,4-tetrahydro-2,4-dimethyl-2-isobutyl-6-ethoxyquinoline], the “nitrosamine content of cook-out fat” value in data set [1] is recorded as 0.6 ppb.

Take `COc1ccc2c(c1)CCCN2` [1,2,3,4-tetrahydro-6-methoxyquinoline]: in data set [1], the “nitrosamine content of cook-out fat” value was 0.6 ppb.

Turning to `O=NN1CCCC1` [N-nitrosopyrrolidine], the “carcinogenicity in tests on experimental animals” value in data set [5] is “carcinogenic”.

Take `CN(C)N=O` [dimethylnitrosamine]: the “carcinogenicity in tests on experimental animals” value in data set [5] was “carcinogenic”.

Turning to `CCOc1ccc2c(c1)C(C)=CC(C)(C)N2` [ethoxyquin, 1,2-dihydro-2,2,4-trimethyl-6-ethoxyquinoline, reference compound], the “stability in the presence of air (darkening)” value in data set [4] (oily yellow liquid, presence of air) is “rather quickly turns dark in the presence of air”.
